Measurements: US5393897A, “Isolation and structure of spongistatins 5,7,8 and 9” (Arizona Board of Regents acting on behalf of Arizona State …, priority 1993, dated 1995)
Like-named read-outs stand apart in the source and are kept apart here.

Legend:
Type in all cases: cell-based
[1] = system: 60 human tumor cell lines; test: NCI in vitro primary screen, panel of 60 human tumor cell lines; conditions: for Compare Correlation Coefficient: TGI-centered mean graph profiles, spongistatin 1 as seed; for correlation of mean-graph fingerprint with microtubule-interactive antimitotics: pattern-recognition analyses, data not shown; for negative log molar TGI50: various human cancer cell lines
From the text: (§1) Only two hundred years ago, many diseases ravaged humankind. Many of these diseases now have been controlled or eradicated. In the development of the means to treat or control these diseases, work with the appropriate common experimental animals was of critical importance. With the various types of cancers, and with the HIV virus, such work is presently ongoing. The research for the treatment of various types of cancer is coordinated in the United States by the National Cancer Institute (NCI). NCI, as a government entity, has been charged with assisting anti-cancer research. To establish whether a substance has anti-cancer activity, NCI has established a variety of protocols, one of which involves testing the candidate substance against a cell line panel containing 60 human tumor cell lines. This protocol has been verified and is generally accepted throughout the scientific community. This protocol and the established statistical means of evaluating the results obtained therefrom have been fully described in the literature. See Principles & Practice of Oncology PPO Updates, Volume 3, Number 10, October 1989, by Michael R. Boyd, M.D., Ph.D., for an in depth description of the test protocol. The statistical analysis is explained in "Display and Analysis of Patterns of Differential Activity of Drugs Against Human Tumor Cell Lines: Development of Means Graph and COMPARE Algorithm" Journal of the National Cancer Institute Reports Vol. 81, No. 14, Pg. 1088, Jul. 14, 1989, by K. D. Paull et al. Both of these references are incorporated herein by this reference thereto. The effectiveness and validity of the NCI in vitro protocol continues to be verified.
^a All compounds were tested in quadruplicate at five different con-
entire panel of 60 human tumor cell lines comprising the NCI
^c Correlation coefficients from the Compare pattern-recognition
algorithm were calculated by computer using the TGI-centered
mean graph profiles of differential cellular sensitivities to 1, and
5. The TGI mean graph profile of 1 was used as the benchmark or
"seed" for all of the comparisons.

DU-145 = test: NCI cell line panel; conditions: Homo sapiens, Prostate Cancer, read-out: Log10 GI50 (converted)
From the text: as §1

SF-539 = test: NCI cell line panel; conditions: Homo sapiens, CNS Cancer, read-out: Log10 GI50 (converted)
From the text: as §1

NCI-H322M = test: NCI cell line panel; conditions: Homo sapiens, Non-Small Cell Lung Cancer; for GI50: read-out: Log10 GI50 (converted)
From the text: as §1

TK-10 = test: NCI cell line panel; conditions: Homo sapiens
From the text: as §1

HL-60(TB) = test: NCI cell line panel; conditions: Homo sapiens, Leukemia, read-out: Log10 GI50 (converted)
From the text: as §1

CAKI-1 = test: NCI cell line panel; conditions: Homo sapiens, Renal Cancer, read-out: Log10 GI50 (converted)
From the text: as §1

NCI-H23 = test: NCI cell line panel; conditions: Homo sapiens, Non-Small Cell Lung Cancer, read-out: Log10 GI50 (converted)
From the text: as §1

U251 = test: NCI cell line panel; conditions: Homo sapiens, U-251; CNS Cancer; read-out: Log10 GI50 (converted)
From the text: as §1

SNB-75 = test: NCI cell line panel; conditions: Homo sapiens, CNS Cancer, read-out: Log10 GI50 (converted)
From the text: as §1

COLO 205 = test: NCI cell line panel; conditions: Homo sapiens; for LC50 (50% lethal concentration): COLO 205, read-out: Log10 LC50 (converted); for IC (TGI): read-out: Log10 TGI (converted)
From the text: as §1

A498 = test: NCI cell line panel; conditions: Homo sapiens; for GI50: A498, Renal Cancer, read-out: Log10 GI50 (converted)
From the text: as §1

NCI-H226 = test: NCI cell line panel; conditions: Homo sapiens, Non-Small Cell Lung Cancer, read-out: Log10 GI50 (converted)
From the text: as §1

OVCAR-8 = test: NCI cell line panel; conditions: Homo sapiens, Ovarian Cancer, read-out: Log10 GI50 (converted)
From the text: as §1

SN12C = test: NCI cell line panel; conditions: Homo sapiens, Renal Cancer; for GI50: read-out: Log10 GI50 (converted)
From the text: as §1

HS 578T = test: NCI cell line panel; conditions: Homo sapiens; for GI50: read-out: Log10 GI50 (converted)
From the text: as §1

A549/ATCC = test: NCI cell line panel; conditions: Homo sapiens, Non-Small Cell Lung Cancer; for GI50: read-out: Log10 GI50 (converted); for IC (TGI): read-out: Log10 TGI (converted)
From the text: as §1

CCRF-CEM = test: NCI cell line panel; conditions: Homo sapiens, Leukemia; for GI50: read-out: Log10 GI50 (converted)
From the text: as §1

HCT-15 = test: NCI cell line panel; conditions: Homo sapiens, Colon Cancer, read-out: Log10 GI50 (converted)
From the text: as §1

MCF7 = test: NCI cell line panel; conditions: Homo sapiens, Breast Cancer; for IC (TGI): read-out: Log10 TGI (converted)
From the text: as §1

HOP-62 = test: NCI cell line panel; conditions: Homo sapiens
From the text: as §1

ACHN = test: NCI cell line panel; conditions: Homo sapiens, Renal Cancer; for GI50: read-out: Log10 GI50 (converted)
From the text: as §1

MDA-MB-231/ATCC = test: NCI cell line panel; conditions: Homo sapiens, Breast Cancer, read-out: Log10 GI50 (converted)
From the text: as §1

SR = test: NCI cell line panel; conditions: Homo sapiens, Leukemia, read-out: Log10 GI50 (converted)
From the text: as §1

MOLT-4 = test: NCI cell line panel; conditions: Homo sapiens, Leukemia, read-out: Log10 GI50 (converted)
From the text: as §1

T-47D = test: NCI cell line panel; conditions: Homo sapiens, T47D, Breast Cancer
From the text: as §1

SF-268 = test: NCI cell line panel; conditions: Homo sapiens, CNS Cancer; for GI50: read-out: Log10 GI50 (converted); for IC (TGI): read-out: Log10 TGI (converted)
From the text: as §1

RXF-393 = test: NCI cell line panel; conditions: Homo sapiens, Renal Cancer; for GI50: read-out: Log10 GI50 (converted)
From the text: as §1

RPMI-8226 = test: NCI cell line panel; conditions: Homo sapiens, Leukemia, read-out: Log10 GI50 (converted)
From the text: as §1

[2] = Homo sapiens, NCI 60 cell line panel, read-out: panel mean GI50
[3] = Homo sapiens, panel mean graph midpoint, read-out: MG-MID, Log10 GI50 (converted)
[4] = Homo sapiens, quadruplicate, five concentrations, standard errors averaged less than 15% of means, read-out: Mean Panel GI50
[5] = read-out: Log10 TGI (converted)
[6] = read-out: Log10 GI50 (converted)

## C=C(Cl)/C=C/C(O)CC(=C)CC1OC2C(C)C(OC(=O)CC3CC(O)CC4(CC(C)(O)CC(C=C5COC(C(C)C(=O)CC6CC(OC)CC7(CC(O)CC(/C=C\CCCC8OC(O)(CC(O)C8C)C2O)O7)O6)C5C)O4)O3)C1O (centres unmarked) [spongistatin 5]
[1]
  potency and specificity against NCI human cancer cell lines: remarkably potent and specific
  Compare Correlation Coefficient: 0.92
  correlation of mean-graph fingerprint with microtubule-interactive antimitotics: closely correlated
  negative log molar TGI50: approximately ten
[1]; Homo sapiens, read-out: MG-MID, Log10 LC50 (converted)
  LC50: 79.4 nM
[1]; [2]
  GI50: 0.1 nM
[1]; [3]
  GI50: 0.0631 nM
[1]; Homo sapiens, panel mean graph midpoint, read-out: MG-MID, Log10 TGI (converted)
  IC (TGI): 13.8 nM
[1]; [4]
  GI50: 0.123 nM
DU-145
  GI50: 0.024 nM
SF-539
  GI50: 0.0229 nM
NCI-H322M
  GI50: 0.0891 nM
TK-10; TK-10, Renal Cancer, read-out: Log10 GI50 (converted)
  GI50: 36.3 nM
HL-60(TB)
  GI50: 0.0129 nM
CAKI-1
  GI50: 0.0575 nM
NCI-H23
  GI50: 0.0347 nM
U251
  GI50: 0.0617 nM
SNB-75
  GI50: 0.012 nM
COLO 205
  LC50 (50% lethal concentration): 7.94 nM
COLO 205; COLO 205, Colon Cancer, read-out: Log10 GI50 (converted)
  GI50: 0.0129 nM
COLO 205; COLO 205, Colon Cancer
  IC (TGI): 0.871 nM
A498; A498, read-out: Log10 LC50 (converted)
  LC50 (50% lethal concentration): 87.1 nM
A498
  GI50: 0.0257 nM
NCI-H226
  GI50: 0.759 nM
OVCAR-8
  GI50: 0.257 nM
SN12C
  GI50: 0.0603 nM
HS 578T; Breast Cancer
  GI50: 0.437 nM
A549/ATCC
  GI50: 0.0209 nM
  IC (TGI): 75.9 nM
CCRF-CEM
  GI50: 0.017 nM
CCRF-CEM; [5]
  IC (TGI): 4.17 nM
HCT-15
  GI50: 0.0631 nM
MCF7
  IC (TGI): 39.8 nM
HOP-62; HOP-62, Non-Small Cell Lung Cancer, read-out: Log10 GI50 (converted)
  GI50: 0.151 nM
ACHN
  GI50: 0.562 nM
MDA-MB-231/ATCC
  GI50: 0.251 nM
SR
  GI50: 0.012 nM
MOLT-4
  GI50: 0.0372 nM
T-47D; [6]
  GI50: 100 nM
SF-268
  GI50: 0.151 nM
  IC (TGI): 100 nM
RXF-393
  GI50: 0.0417 nM
RPMI-8226
  GI50: 0.0129 nM

## C=C/C=C/C(O)CC(=C)CC1OC2C(C)C(OC(=O)CC3CC(O)CC4(CC(C)(O)CC(C=C5COC(C(C)C(=O)CC6CC(OC)CC7(CC(O)CC(/C=C\CCCC8OC(O)(CC(O)C8C)C2O)O7)O6)C5C)O4)O3)C1O (centres unmarked) [spongistatin 7]
[1]
  potency and specificity against NCI human cancer cell lines: remarkably potent and specific
  Compare Correlation Coefficient: 0.81
  correlation of mean-graph fingerprint with microtubule-interactive antimitotics: closely correlated
  negative log molar TGI50: approximately ten
[1]; [2]
  GI50: 0.1 nM
[1]; [3]
  GI50: 1.17 nM
[1]; [4]
  GI50: 1.01 nM
DU-145
  GI50: 1.58 nM
SF-539
  GI50: 0.49 nM
NCI-H322M
  GI50: 3.24 nM
NCI-H322M; [5]
  IC (TGI): 100 nM
TK-10; TK-10, read-out: Log10 GI50 (converted)
  GI50: 56.2 nM
TK-10; TK-10, Renal Cancer, read-out: Log10 TGI (converted)
  IC (TGI): 100 nM
HL-60(TB)
  GI50: 0.0794 nM
CAKI-1
  GI50: 12 nM
NCI-H23
  GI50: 0.708 nM
U251
  GI50: 0.759 nM
SNB-75
  GI50: 0.372 nM
COLO 205; COLO 205, read-out: Log10 GI50 (converted)
  GI50: 0.331 nM
COLO 205
  LC50 (50% lethal concentration): 75.9 nM
COLO 205; COLO 205, Colon Cancer
  IC (TGI): 3.8 nM
A498
  GI50: 2.69 nM
NCI-H226
  GI50: 2 nM
OVCAR-8
  GI50: 3.98 nM
SN12C
  GI50: 2.19 nM
SN12C; [5]
  IC (TGI): 100 nM
HS 578T; Breast Cancer, read-out: Log10 TGI (converted)
  IC (TGI): 100 nM
HS 578T
  GI50: 1.29 nM
A549/ATCC
  GI50: 3.47 nM
  IC (TGI): 100 nM
CCRF-CEM
  GI50: 0.24 nM
HCT-15
  GI50: 6.17 nM
MCF7; [6]
  GI50: 0.17 nM
MCF7
  IC (TGI): 100 nM
HOP-62; HOP-62, read-out: Log10 GI50 (converted)
  GI50: 1 nM
ACHN
  GI50: 10 nM
ACHN; [5]
  IC (TGI): 100 nM
MDA-MB-231/ATCC
  GI50: 1.58 nM
SR
  GI50: 0.0912 nM
MOLT-4
  GI50: 0.575 nM
T-47D; [5]
  IC (TGI): 100 nM
SF-268
  GI50: 6.31 nM
  IC (TGI): 100 nM
RXF-393
  GI50: 2.69 nM
RXF-393; [5]
  IC (TGI): 100 nM
RPMI-8226
  GI50: 0.708 nM
